From patent publication US9951049B2, “Pyrazole linked benzimidazole conjugates and a process for preparation thereof” (Council of Scientific & Industrial Reseach, priority 2014, dated 2018)
“Also recorded” adds a separate entry of the source. Where two headings read alike, the source gives them in different places.

Experiments:
NCI-H522 = experiment: NCI SRB screen, NCI-H522
PC-3 = experiment: NCI SRB screen, PC-3; conditions: Homo sapiens, PC-3, 48 h, read-out: GI50 values
SW-620 = experiment: NCI SRB screen, SW-620; conditions: Homo sapiens, SW-620, 48 h, read-out: GI50 values
KM12 = experiment: NCI SRB screen, KM12; conditions: Homo sapiens, KM12, 48 h, read-out: GI50 values
[1] = test system: Ovarian cancer cell lines; experiment: NCI SRB screen, Ovarian panel average; conditions: Homo sapiens, 48 h, read-out: Log10 GI50 (converted)
Melanoma cell lines = experiment: NCI SRB screen, Melanoma panel average; conditions: Homo sapiens, 48 h, read-out: Log10 GI50 (converted)
OVCAR-4 = experiment: NCI SRB screen, OVCAR-4; conditions: Homo sapiens, OVCAR-4, 48 h, read-out: GI50 values
T-47D = experiment: NCI SRB screen, T-47D; conditions: Homo sapiens, T47D, 48 h, read-out: GI50 values
DU-145 = experiment: NCI SRB screen, DU-145; conditions: Homo sapiens, DU-145, 48 h, read-out: GI50 values
K-562 = experiment: NCI SRB screen, K-562; conditions: Homo sapiens, K562, 48 h, read-out: GI50 values
NCI/ADR-RES = experiment: NCI SRB screen, NCI/ADR-RES; conditions: Homo sapiens, 48 h, read-out: GI50 values
RPMI-8226 = experiment: NCI SRB screen, RPMI-8226; conditions: Homo sapiens, RPMI-8226, 48 h, read-out: GI50 values
BT-549 = experiment: NCI SRB screen, BT-549; conditions: Homo sapiens, BT-549, 48 h, read-out: GI50 values
SF-295 = experiment: NCI SRB screen, SF-295; conditions: Homo sapiens, SF-295, 48 h, read-out: GI50 values
A498 = experiment: NCI SRB screen, A498; conditions: Homo sapiens, A498, 48 h, read-out: GI50 values
MDA-MB-435 = experiment: NCI SRB screen, MDA-MB-435 (Melanoma panel); conditions: Homo sapiens, MDA-MB-435, 48 h, read-out: GI50 values
ACHN = experiment: NCI SRB screen, ACHN; conditions: Homo sapiens, 48 h, read-out: GI50 values
CAKI-1 = experiment: NCI SRB screen, CAKI-1; conditions: Homo sapiens, CAKI-1, 48 h, read-out: GI50 values
RXF 393 = experiment: NCI SRB screen, RXF 393; conditions: Homo sapiens, RXF 393, 48 h, read-out: GI50 values
A549/ATCC = experiment: NCI SRB screen, A549/ATCC; conditions: Homo sapiens, A549, 48 h, read-out: GI50 values
MALME-3M = experiment: NCI SRB screen, MALME-3M; conditions: Homo sapiens, 48 h, read-out: GI50 values
UACC-257 = experiment: NCI SRB screen, UACC-257; conditions: Homo sapiens, UACC-257, 48 h, read-out: GI50 values
[2] = test system: fifty six human tumor cell lines; experiment: NCI human tumor cell line screen (48 h, SRB), all cell lines; conditions: for GI50: Homo sapiens
SN12C = experiment: NCI SRB screen, SN12C; conditions: Homo sapiens, 48 h, read-out: GI50 values
IGROV1 = experiment: NCI SRB screen, IGROV1; conditions: Homo sapiens, IGROV-1, 48 h, read-out: GI50 values
UO-31 = experiment: NCI SRB screen, UO-31; conditions: Homo sapiens, UO-31, 48 h, read-out: GI50 values
SK-MEL-28 = experiment: NCI SRB screen, SK-MEL-28; conditions: Homo sapiens, SK-MEL-28, 48 h, read-out: GI50 values
NCI-H226 = experiment: NCI SRB screen, NCI-H226; conditions: Homo sapiens, NCI-H226, 48 h, read-out: GI50 values
SR = experiment: NCI SRB screen, SR; conditions: Homo sapiens, 48 h, read-out: GI50 values
NCI-H460 = experiment: NCI SRB screen, NCI-H460; conditions: Homo sapiens, NCI-H460, 48 h, read-out: GI50 values
OVCAR-3 = experiment: NCI SRB screen, OVCAR-3; conditions: Homo sapiens, OVCAR-3, 48 h, read-out: GI50 values
786-0 = experiment: NCI SRB screen, 786-0; conditions: Homo sapiens, 786-0, 48 h, read-out: GI50 values

## COc1cc(-c2cc(-c3nc4ccccc4[nH]3)[nH]n2)cc(OC)c1OC [6f, 2-(3-(3,4,5-trimethoxyphenyl)-1H-pyrazol-5-yl)-1H-benzo[d]imidazole]
NCI-H522; Homo sapiens, NCI-H522, 48 h, read-out: GI50 values, Non-small cell lung, NCI-H522
  GI50: 1840 nM
NCI-H522; read-out: GI50 values, Non-small cell lung, NCI-H522, 48 h
  GI50: 1870 nM
PC-3
  GI50: 2100 nM
SW-620
  GI50: 7730 nM
KM12
  GI50: 3150 nM
[1]
  GI50: 3240 nM
Melanoma cell lines
  GI50: 2090 nM
OVCAR-4
  GI50: 1260 nM
T-47D
  GI50: 1110 nM
DU-145
  GI50: 3900 nM
K-562
  GI50: 3080 nM
NCI/ADR-RES
  GI50: 2880 nM
RPMI-8226
  GI50: 1200 nM
BT-549
  GI50: 1800 nM
SF-295
  GI50: 3130 nM
A498
  GI50: 1510 nM
MDA-MB-435
  GI50: 2350 nM
ACHN
  GI50: 2770 nM
CAKI-1
  GI50: 2240 nM
RXF 393
  GI50: 1770 nM
A549/ATCC
  GI50: 2430 nM
MALME-3M
  GI50: 1950 nM
UACC-257
  GI50: 2100 nM
[2]; read-out: GI50 value range
  GI50: 340 to 10000 nM
[2]; read-out: Log10 GI50 mean graph midpoint (MG_MID) (converted)
  GI50: 2880 nM
[2]; human cancer cell lines of the NCI panel
  anticancer activity (in words): significant anticancer activity; also recorded: pronounced activities
[2]; human tumor cell lines, mean over the panel, total growth inhibition
  Log10 TGI mean graph midpoint (MG_MID): −4.83
SN12C
  GI50: 3910 nM
IGROV1
  GI50: 2340 nM
UO-31
  GI50: 2210 nM
SK-MEL-28
  GI50: 2720 nM
NCI-H226
  GI50: 1140 nM
SR
  GI50: 3320 nM
NCI-H460
  GI50: 3640 nM
OVCAR-3
  GI50: 4000 nM
786-0
  GI50: 3660 nM
